Laboratory results: PMC6805867, “Amphiphilic Triazine Polymer Derivatives as Antibacterial And Anti-atopic Agents in Mice Model” (Scientific Reports, 2019)

What was measured:
[1] = system: Methicillin-resistant Staphylococcus aureus (MRSA) CCARM 3095; assay type: cell-based; settings: broth microdilution, 37 °C, 18–22 h
Protocol: (§1) The bacterial strains employed in the experiment were Escherichia coli (KCTC 1682), Pseudomonas aeruginosa (KCTC 1637), Bacillus subtilis (KCTC 3068), Staphylococcus aureus (KCTC 1621), three methicillin-resistant Staphylococcus aureus (CCARM 3089, 3090 and 3095), two multidrug-resistant Pseudomonas aeruginosa (CCARM 2095 and 2109) and vancomycin-resistant Enterococcus faecium (ATCC 51559). The antimicrobial activities of polymers were determined by the broth microdilution method, and the procedures were used as previously reported. Briefly, bacteria grown to mid-logarithmic phase in LB broth were diluted to 2 × 10^6 CFU/mL in 1% peptone and added to serial two-fold dilutions of different polymers ranging from 1 to 64 μg/mL. The plates were incubated in a shaking incubator at 37 °C for 18–22 h. The minimum inhibitory concentration (MIC) was determined by confirming the absence of bacterial growth both visually and spectrophotometrically by OD600 readings taken by a microplate ELISA reader (Molecular Devices, Sunnyvale, CA, USA). All measurements were performed three times.

[2] = system: Methicillin-resistant Staphylococcus aureus (MRSA) CCARM 3090; assay type: cell-based; settings: broth microdilution, 37 °C, 18–22 h
Protocol: as §1

[3] = system: Multidrug-resistant Pseudomonas aeruginosa (MDRPA) CCARM 2095; assay type: cell-based; settings: broth microdilution, 37 °C, 18–22 h
Protocol: as §1

[4] = system: Methicillin-resistant Staphylococcus aureus (MRSA) CCARM 3089; assay type: cell-based; settings: broth microdilution, 37 °C, 18–22 h
Protocol: as §1

[5] = system: Multidrug-resistant Pseudomonas aeruginosa (MDRPA) CCARM 2109; assay type: cell-based; settings: broth microdilution, 37 °C, 18–22 h
Protocol: as §1

[6] = system: TNF-α in RBL-2H3 cells; assay: Production of TNF-α induced by A23187 and PMA; assay type: cell-based, rat; settings: 1 μM A23187 and 80 nM PMA, 4 h
Protocol: The inhibition of TNF-α release induced by A23187 and PMA from the RBL-2H3 cells was assessed by using a previously reported method. The RBL-2H3 cells (2 × 10^5 cells/well) were cultured with 1 μM A23187 and 80 nM PMA for 4 h at 37 °C, after exposure to 0, 15.625, 31.25, 62.5, or 125 μg/mL 30 min of the TZP3 and TZP5. Next, the cells were used for RT-PCR.
Effect of TZP3 and TZP5 on TNF-α suppression
Therefore, the dimer TZP3 and trimer TZP5 were probed for their potential for inhibiting the TNF-α induced from RBL-2H3 cells in in vitro method.
Calcium ionophore A23187 and PMA induced the TNF-α secretion in RBL-2H3 cells, on the contrary, treatment of which with TZP3 and TZP5
Figure S1. Inhibitory effects of the TZP3 and TZP5 on A23187 and PMA-induced TNF-α induced from RBL-2H3 cells. […]

[7] = system: lymph node and spleen of AD-induced mice; assay: DNCB-induced AD model, lymph node and spleen weight and size; assay type: in vivo, BALB/c mice; settings: for weight and size of spleen: compared to AD-induced mice, p < 0.05 for weight; for decrease in both weight and size of lymph node: compared to untreated AD-mice
Protocol: (§2) As described in our previous article, the 7-week-old female BALB/c mice were divided into seven groups (n = 8 per group): Control (Con) group, TZP3 200 μg/mL (TZP3) group, and TZP5 200 μg/mL (TZP5) group, DNCB-sensitized only (AD) group, DNCB-sensitized + TZP3 200 μg/mL (AD + TZP3) group, DNCB-sensitized + TZP5 200 μg/mL (AD + TZP5) group, DNCB-sensitized + Dermatop (Sanofi, Korea) 0.25% (AD + Dermatop) group. Dermatop was used as a positive control treatment. For the first induction of AD in the BALB/c mice, the backs of the mice were shaved and challenged with 200 μL of 1% 2,4-dinitrochlorobenzene(DNCB) in acetone/olive oil (3:1) one time (day−4). After 4 days from the induction, 0.5% DNCB was painted onto the backs of the mice every two days (day 2, 4, 6, 8, 10, 12, 14, 16 and 18). Concentrations of 200 μg/mL TZP3 or TZP5 in 20 μL of PBS were applied to the dorsal skin once daily for 18 days.

[8] = system: serum total IgE and IgG2a; assay: DNCB-induced AD model, serum immunoglobulins by ELISA; assay type: in vivo, BALB/c mice; settings: versus AD-induced mice
Protocol: as §2
Blood was collected from each experimental group via cardiac puncture and was centrifuged at 3000 rpm and 4 °C for 20 min to obtain the serum. The levels of IgE, IgG2a were measured with an enzyme-linked immunosorbent assay kit (Bethyl Laboratories, Montgomery, TX, USA), following the manufacturer’s instructions.

[9] = system: Escherichia coli (KCTC 1682); assay: Antimicrobial activity, broth microdilution MIC; assay type: cell-based; settings: 2 × 10^6 CFU/mL in 1% peptone, 37 °C, 18–22 h, 100% inhibition of growth, performed three times
Protocol: as §1

[10] = system: Pseudomonas aeruginosa (KCTC 1637); assay: Antimicrobial activity, broth microdilution MIC; assay type: cell-based; settings: 2 × 10^6 CFU/mL in 1% peptone, 37 °C, 18–22 h, 100% inhibition of growth, performed three times
Protocol: as §1

[11] = system: Bacillus subtilis (KCTC 3068); assay: Antimicrobial activity, broth microdilution MIC; assay type: cell-based; settings: 2 × 10^6 CFU/mL in 1% peptone, 37 °C, 18–22 h, 100% inhibition of growth, performed three times
Protocol: as §1

[12] = system: Staphylococcus aureus (KCTC 1621); assay: Antimicrobial activity, broth microdilution MIC; assay type: cell-based; settings: 2 × 10^6 CFU/mL in 1% peptone, 37 °C, 18–22 h, 100% inhibition of growth, performed three times
Protocol: as §1

[13] = system: HaCaT cells; assay: Cytotoxicity, MTT assay; assay type: cell-based; settings: 24 h, maximum tested concentration (20 µg)
Protocol: page 6: Figure S2. Effect of TZP3 and TZP5 on β-hexosaminidase release in RBL-2H3 cells Cytotoxicity evaluation of TZP3 and TZP5 on HaCaT cells Figure S3: Cytotoxicity evaluation of TZP3 […] and TZP5 (b) on HaCaT cells. TZP3 and TZP5 were treated with HaCaT cells in various concentrations for 24 h followed by MTT assay, and absorbance was measured. Cell viability was calculated as the relative absorbance. […]

Structure (SMILES) | MIC MRSA CCARM 3095 [1] | MIC MRSA CCARM 3090 [2] | MIC MDRPA CCARM 2095 [3] | MIC MRSA CCARM 3089 [4] | MIC MDRPA CCARM 2109 [5] | TNF-α suppression ([6]; 15.6 μg/mL) | TNF-α suppression ([6]; 31.2 μg/mL) | TNF-α suppression ([6]; 62.5 μg/mL) | TNF-α suppression ([6]; 125 μg/mL) | weight and size of spleen [7] | decrease in both weight and size of lymph node [7] | serum level of total IgE [8] | serum level of total IgG2a [8] | MIC Escherichia coli (KCTC 1682) [9] | MIC Pseudomonas aeruginosa (KCTC 1637) [10] | MIC Bacillus subtilis (KCTC 3068) [11] | MIC Staphylococcus aureus (KCTC 1621) [12] | cytotoxicity in HaCaT cells [13]
NCCCN(CCCN)c1nc(Cl)nc(NCCNc2nc(NCCNc3nc(N)nc(NCCC(c4ccccc4)c4ccccc4)n3)nc(N(CCCN)CCCN)n2)n1 [TZP5] | 4 [3] µg/mL | 4 [3] µg/mL | 8 [6] µg/mL | 4 [3] µg/mL | 8 [6] µg/mL | didn’t show appreciable TNF-α suppressions | didn’t show appreciable TNF-α suppressions | dose-dependent manner | dose-dependent manner | significant decrease | more than 35% | significantly reduced | significantly reduced | 4 [3] μg/mL | 4 [3] μg/mL | 2 [1.5] μg/mL | 4 [3] μg/mL | didn’t show significant cytotoxicity
NCCCN(CCCN)c1nc(N)nc(NCCNc2nc(Cl)nc(N(Cc3ccccc3)Cc3ccccc3)n2)n1 [TZP3] | 8 [13.5] µg/mL | 8 [13.5] µg/mL | 8 [13.5] µg/mL | 8 [13.5] µg/mL | 8 [13.5] µg/mL | ~10% | ~10% | approximately 70% | ~90% | significant decrease | more than 35% | significantly reduced | significantly reduced | 4 [6.8] μg/mL | 8 [13.5] μg/mL | 2 [3.4] μg/mL | 4 [6.8] μg/mL | didn’t show significant cytotoxicity
